Data on two compounds can be found in patent US20250332119A1, “NOVEL ANTI-INFLAMMATORY COMPOSITION AND USE THEREOF” (ASK CO., LTD., priority 2023, published 2025).

Experiment [1] deals with RAW264.7 (mouse macrophage). The experiment can be described thus: NO production in LPS-induced mouse macrophages (Griess reagent). Format: cell-based. Conditions: RAW264.7, LPS 1 μg/mL, 24 hours, sample pretreatment 30 minutes, non-cytotoxic concentration range. On the procedure: (§1) To evaluate the inhibitory ability against nitric oxide and PGE2 production induced by LPS (lipopolysaccharide), mouse macrophages were used to assess the effect on the production of nitric oxide (NO) and prostaglandin E2 (PGE2). The cells used in the experiment were RAW264.7 (mouse macrophage), which were cultured in Dulbecco's modified Eagle's medium (DMEM, Invitrogen) supplemented with 10% fetal bovine serum (FBS, Lonza) and 50 μg/mL streptomycin (Sigma) at 37° C. in 5% CO2.
Specifically, the cells were seeded into 96-well plates at a density of 1× 10^5 cells/well and incubated at 37° C. in a 5% CO2 incubator for 24 hours. The culture medium was removed from the cultured cells, and the medium was replaced with a fresh medium containing the test sample and the cells pre-incubated at 37° C. under 5% CO2 for 30 minutes. Following the 30-minute incubation, LPS was added to a final concentration of 1 μg/mL, and the cells were incubated at 37° C. in a 5% CO2 incubator for 24 hours. After incubation, 100 μL of the supernatant was transferred to a new 96-well plate and mixed with an equal volume of a 1:1 mixture of Griess reagent A and B, then 100 μL aliquot of the resulting mixture was dispensed into each well. Immediately after treatment with Griess reagent, absorbance was measured at 540 nm using a microplate reader. The NO production rate (%) of macrophages was calculated using Equation 1 below.

The subject of experiment [2] is RAW264.7 (mouse macrophage). The experiment can be described thus: PGE2 production in LPS-induced mouse macrophages (ELISA). Type of experiment: cell-based. Conditions: RAW264.7, LPS, 24 hours. On the procedure: as §1
In addition, to evaluate the production of PGE2, a procedure similar to that described above was followed. The procedures for treating the cells with the sample and LPS after cell culture were identical. Subsequently, 100 μL aliquots of the supernatant were collected and transferred to a new 96-well plate, and diluted 10- to 20-fold with culture medium. In the NSB (Non-specific binding) wells of the Anti-Mouse IgG plate, 100 μL of culture medium was added. Then, 100 μL each of the standard and diluted supernatant were added to the respective wells, followed by 50 μL of blue PGE2-AP conjugate added to all wells except the blank well. 50 μL of culture medium was added to the NSB wells, and 50 μL of yellow PGE2 antibody was added to all wells except the blank and NSB wells. The plate was then shaken using an orbital shaker at 500 rpm for 2 hours at room temperature (22-25° C.). After 2 hours, the contents of the plate were discarded, and the wells were washed three times with 400 μL of washing buffer. Then, 200 μL of substrate solution was added to each well and the plate was incubated at room temperature (22-25° C.) for 45 minutes. After incubation, 50 μL of stop solution was added to each well, and the absorbance was immediately measured at 405 nm using a microplate reader. The PGE2 production rate (%) of macrophages was calculated using Equations 2 and 3 below.

The next experiment deals with IL-1α. Nature of the experiment: IL-1α mRNA expression by Realtime qRT-PCR in LPS-induced macrophages. Type of experiment: cell-based, mouse. Conditions: RAW264.7, LPS 24 hours. On the procedure:
(§2) To evaluate the inhibitory ability against inflammatory cytokines induced by LPS (lipopolysaccharide), mouse macrophages were used to assess the effect on the production of IL-1α and TNF-α, which are the early-stage inflammatory molecules. The cells used in the experiment were RAW264.7 (Mouse macrophage), which were cultured at 37° C. under 5% CO2 in Dulbecco's modified Eagle's medium (DMEM, Invitrogen) supplemented with 10% fetal bovine serum (FBS, Lonza) and 50 μg/mL streptomycin (Sigma).
(§3) Specifically, the cells were seeded into 6-well plates at a density of 1×10^6 cells/well and cultured at 37° C. in a 5% CO2 incubator for 24 hours. After removing the culture medium, the cells were replaced with fresh medium containing the sample and pre-incubated at 37° C. under 5% CO2 for 30 minutes. Following pretreatment with the sample for 30 minutes, the cells were exposed with LPS for 24 hours to induce an inflammatory response. As a control, cells treated with LPS alone, without sample treatment, were used.
(§4) Total RNA in cells was then extracted from cultured cells using Trizol reagent (Invitrogen, USA) for RNA analysis. The purity and integrity of the RNA were confirmed by measuring the A260 nm/A280 nm ratio, and RNA yield was measured by absorbance at 260 nm.
(§5) For cDNA synthesis, 3 μg of total RNA was mixed with Oligo dT 15 (500 ng/μL) primer, dNTP (10 mM), RTase inhibitor (40 U/μL), and Powerscript II RTase (Clontech, USA), followed by primer annealing at 25° C. for 10 minutes, cDNA synthesis at 42° C. for 60 minutes, and RTase denaturation at 95° C. for 5 minutes. PCR was performed to amplify IL-1α, TNF-α, and GAPDH from cDNA by mixing 3 μL of cDNA, 5 μL of 10×taq polymerase buffer, 2 μL of 10 mM dNTP, 2 μL each of 10 pmol primers, and 0.5 μL of taq polymerase, followed by the addition of distilled water to a final volume of 50 μL.
(§6) The primer sequences used are shown in Table 1, and the PCR process was carried out using the Real-time qRT PCR method with the LightCycler® 96 System (Roche Diagnostics).

The next experiment concerns TNF-α. The experiment can be described thus: TNF-α mRNA expression by Realtime qRT-PCR in LPS-induced macrophages. Format: cell-based, mouse. Conditions: RAW264.7, LPS 24 hours. The procedure: as §2, §3, §4, §5, §6
A further experiment relates to macrophages. Conditions: Food Funct. 2017; 8 (11): 4150-4158; cited from earlier work.
In experiment [3] the test system is TNF-α, IL-6, IL-1B, and NOS2. As to conditions: Food Funct. 2017; 8 (11): 4150-4158; cited from earlier work.
Experiment [4] deals with human breast carcinoma cells (MCF-7). As to conditions: Planta Med. 2011; 77 (2): 164-8; cited from earlier work.
The test system of another experiment is skeletal muscle cells. Conditions: J Biotechnol. 2023; 368:53-59; cited from earlier work.

`CCCCC/C=C\C/C=C\CCCCCCCC(=O)O` [Assay-5, linoleic acid]: the NO production entry in experiment [1] is given as “relatively high NO reduction at the lowest concentrations”. Also, the PGE2 production result in experiment [2] is recorded as “increase in PGE2 production with increasing concentration”; in experiment [2] (listed as linoleic acid), “increased the production of the inflammatory factor PGE2 as its concentration increased”. Further, the “Relative IL-1α mRNA expression” value with IL-1α is “tendency toward decreased IL-1α mRNA expression with increasing concentration”. Further, the “Relative TNF-α mRNA expression” value with TNF-α is “did not inhibit TNF-α mRNA expression”. Moreover, the “NO production in macrophages” value in the experiment with macrophages is reported as “inhibiting NO production in macrophages”. Moreover, in experiment [3], the “expression of proinflammatory cytokines” value was “suppressing the expression of proinflammatory cytokines including TNF-α, IL-6, IL-1B, and NOS2”.

As to `C=CC(O)C#CC#CC(O)/C=C\CCCCC` (centres unmarked) [Assay-10, (9Z)-1,9-pentadecadiene-4,6-diyne-3,8-diol], the NO production result in experiment [1] is “relatively high NO reduction at the lowest concentrations”; in experiment [1] (listed as araliadiol) it was “higher NO reduction rate than linoleic acid”. Besides, the PGE2 production entry in experiment [2] is “decrease in PGE2 production with increasing concentration”; in experiment [2] (listed as araliadiol) it was “decreased PGE2 production with increasing concentration”. Moreover, the “Relative IL-1α mRNA expression” value was “tendency toward decreased expression of both IL-1α and TNF-α mRNA with increasing concentration” in the experiment with IL-1α; “relatively more reduced by araliadiol compared to linoleic acid” in the experiment with IL-1α (listed as araliadiol). For the same compound, the “Relative TNF-α mRNA expression” value is “tendency toward decreased expression of both IL-1α and TNF-α mRNA with increasing concentration” in the experiment with TNF-α; “relatively more reduced by araliadiol compared to linoleic acid” with TNF-α (listed as araliadiol). Besides, in experiment [4], the “growth of human breast carcinoma cells (MCF-7)” value is listed as “inhibit the growth of human breast carcinoma cells (MCF-7)”. Further, the “glucose uptake by skeletal muscle cells” value with skeletal muscle cells is recorded as “effectively enhance glucose uptake by skeletal muscle cells”.
